Results from patent publication US8426447B2, “Spiro-tricyclic ring compounds as beta-secretase modulators and methods of use” (Amgen Inc., priority 2008, dated 2013).
Blank lines part the entries; values can stand above or below the compound they belong to.

Experiments:
[1] = molecular target: T1, BACE1 (Homo sapiens, UniProt P56817); test: In Vitro BACE Cell-based Assay (HEK cell assay): Aβ40 in conditioned medium of cells stably expressing Amyloid Precursor Protein, sandwich ELISA
In short: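 HEK cells stably expressing APP were treated 24 h with compound in 10-point dose response starting at 100 or 10 μM (0.1% DMSO). Secreted Aβ40 quantified by sandwich ELISA (pAb40 capture, biotinylated 6E10 detection, europium time-resolved fluorescence), with IC50 derived from percent inhibition versus concentration.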

[2] = molecular target: T1, BACE1; test: In Vitro Enzymatic BACE FRET (Fluorescence Resonance Energy Transfer) Assay; assay type: biochemical
In short: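 First, compound and enzyme sit in 0.05 M acetate (pH 4.2, 10% DMSO final, 100 uM nonionic genapol). Next, 50 nM quenched FRET peptide starts the reaction for one hour. Last, Tris neutralises the mixture before fluorescence is measured.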

[3] = Table 1, Aβ40, 24 h incubation, read-out: HEK cell assay
[4] = Table 1, read-out: BACE1 FRET assay
[5] = Table IV, class symbols, read-out: HEK cell assay
[6] = Table IV, class symbols, read-out: BACE1 FRET assay
[7] = Table III, IC50's in uM ranges, read-out: HEK cell assay
[8] = Table III, IC50's in uM ranges, read-out: BACE1 FRET assay

T1 sequence (P56817 46-501, species assumed): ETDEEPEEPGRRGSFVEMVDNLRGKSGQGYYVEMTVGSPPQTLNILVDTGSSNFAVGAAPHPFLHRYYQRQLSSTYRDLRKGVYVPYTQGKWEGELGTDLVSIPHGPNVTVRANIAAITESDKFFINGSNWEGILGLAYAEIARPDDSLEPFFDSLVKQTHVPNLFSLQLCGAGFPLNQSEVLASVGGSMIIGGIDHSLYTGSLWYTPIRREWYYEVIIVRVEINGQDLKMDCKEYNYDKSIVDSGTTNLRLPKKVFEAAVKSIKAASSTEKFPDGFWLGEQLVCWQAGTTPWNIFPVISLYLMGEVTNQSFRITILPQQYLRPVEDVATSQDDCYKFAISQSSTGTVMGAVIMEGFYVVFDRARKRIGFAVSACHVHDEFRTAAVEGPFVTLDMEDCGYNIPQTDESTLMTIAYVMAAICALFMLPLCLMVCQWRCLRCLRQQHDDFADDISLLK

SMILES: Cc1ccc2c(c1)Oc1ccc(-c3cccc(Cl)c3F)cc1C21COC(N)=N1 (centres unmarked) [Example 26, 2′-(3-chloro-2-fluorophenyl)-6′-methylspiro[1,3-oxazole-4,9′-xanthen]-2-amine]
- IC50 [1, 3]: 1 to 5 µM
- IC50 [2, 4]: > 5 µM

SMILES: Cc1cccc(-c2ccc3c(c2)[C@]2(COC(N)=N2)c2cc(-c4cncnc4)ccc2O3)c1 [compound 998]
- IC50 ([1]; read-out: HEK cell assay): < 0.1 µM
- IC50 ([2]; read-out: BACE1 FRET assay): < 0.1 µM

SMILES: NC1=N[C@]2(CO1)c1cc(-c3cccnc3)ccc1Oc1ccc(-c3cncnc3)cc12 [Example 124, (R)-2′-(pyridin-3-yl)-7′-(pyrimidin-5-yl)-5H-spiro[oxazole-4,9′-xanthen]-2-amine]
- IC50 [1, 7]: < 0.1 µM
- IC50 [2, 8]: < 0.1 µM

SMILES: COC(C)(C)C#Cc1cc(F)c2c(c1)[C@@]1(COC(N)=N1)c1cc(-c3ccc(F)nc3)ccc1O2 [compound 645]
- IC50 [1, 5]: 1 to 5 µM
- IC50 [2, 6]: 0.1 to 1 µM

SMILES: CC(C)(C)COc1ccc2c(c1)[C@]1(CSC(N)=N1)c1cc(-c3cncnc3)ccc1O2 [compound 720]
- IC50 ([1]; read-out: HEK cell assay): < 0.1 µM
- IC50 ([2]; read-out: BACE1 FRET assay): < 0.1 µM

SMILES: N#Cc1ccc(-c2ccc3c(c2)[C@@]2(COC(N)=N2)c2cc(-c4cccnc4)ccc2O3)cn1 [compound 683]
- IC50 ([1]; read-out: HEK cell assay): < 0.1 µM
- IC50 ([2]; read-out: BACE1 FRET assay): < 0.1 µM

SMILES: CC(C)(C)COc1ccc2c(c1)[C@]1(COC(N)=N1)c1cc(-c3ccc(N4CCOCC4)nc3)ccc1O2 [compound 912]
- IC50 [1, 5]: > 5 µM
- IC50 [2, 6]: 1 to 5 µM

SMILES: CC(C)(C)COc1ccc2c(c1)[C@@]1(COC(N)=N1)c1cc(-c3ccc(F)nc3)cnc1O2 [compound 951]
- IC50 ([1]; read-out: HEK cell assay): < 0.1 µM
- IC50 ([2]; read-out: BACE1 FRET assay): < 0.1 µM

SMILES: CC(C)(C)C#Cc1ccc2c(c1)[C@@]1(COC(N)=N1)c1cc(C#CC(C)(C)C)cnc1O2 [compound 897]
- IC50 [1, 5]: 0.1 to 1 µM
- IC50 [2, 6]: < 0.1 µM

SMILES: CC(C)(C)C#Cc1cnc2c(c1)[C@@]1(COC(N)=N1)c1cc(-c3cccnc3)ccc1O2 [185a]
- IC50 [1, 7]: 1 to 5 µM
- IC50 [2, 8]: 0.1 to 1 µM

SMILES: CC(C)(C)CCc1ccc2c(c1)[C@@]1(COC(N)=N1)c1cc(-c3ccc(F)nc3)ccc1O2 [153a]
- IC50 [1, 7]: 0.1 to 1 µM
- IC50 [2, 8]: < 0.1 µM

SMILES: CC1(COc2ccc3c(c2)[C@]2(COC(N)=N2)c2cc(Br)cnc2O3)COC1 [compound 164]
- IC50 [1, 7]: 1 to 5 µM
- IC50 [2, 8]: 0.1 to 1 µM

Next, values leading:

- IC50 [1, 5]: < 0.1 µM
- IC50 [2, 6]: < 0.1 µM
SMILES: NC1=N[C@@]2(CO1)c1cc(-c3cccnc3)ccc1Oc1ncc(N3CCOCC3)cc12 [compound 539]

- IC50 [1, 7]: 0.1 to 1 µM
- IC50 [2, 8]: < 0.1 µM
SMILES: CC(C)(C)COc1ccc2c(c1)[C@@]1(COC(N)=N1)c1cc(-c3ccc(C#N)cc3)ccc1O2 [Example 128, (R)-4-(2-amino-2′-(neopentyloxy)-5H-spiro[oxazole-4,9′-xanthene]-7′-yl)benzonitrile]

- IC50 [1, 5]: 0.1 to 1 µM
- IC50 [2, 6]: 0.1 to 1 µM
SMILES: NC1=N[C@@]2(CO1)c1cc(-c3cncnc3)ccc1Oc1ccc(C(F)(F)F)cc12 [compound 597]

- IC50 ([1]; HEK cell assay, Table IV, class symbols): < 0.1 µM
- IC50 ([2]; BACE1 FRET assay, Table IV, class symbols): < 0.1 µM
SMILES: NC1=N[C@@]2(CO1)c1cc(-c3cccnc3F)ccc1Oc1cnc(C3=CCOCC3)cc12 [Example 294, (S)-3-(3,6-dihydro-2H-pyran-4-yl)-7-(2-fluoropyridin-3-yl)-5′H-spiro[chromeno[2,3-c]pyridine-5,4′-oxazol]-2′-amine]

- IC50 ([1]; read-out: HEK cell assay): < 0.1 µM
- IC50 ([2]; read-out: BACE1 FRET assay): < 0.1 µM
SMILES: Cn1cc(-c2ccc3c(c2)[C@]2(COC(N)=N2)c2cc(-c4cccnc4)ccc2O3)cn1 [compound 710]

- IC50 ([1]; read-out: HEK cell assay): 0.1 to 1 µM
- IC50 ([2]; read-out: BACE1 FRET assay): 0.1 to 1 µM
SMILES: CC(C)(C)OC(=O)Cc1ccc2c(c1)[C@]1(COC(N)=N1)c1cc(-c3cccnc3)ccc1O2 [compound 706]

- IC50 ([1]; Table II, Aβ40, 24 h incubation, read-out: HEK cell assay): 1 to 5 µM
- IC50 ([2]; Table II, read-out: BACE1 FRET assay): < 0.1 µM
SMILES: CC(C)(C)COc1ccc2c(c1)[C@]1(COC(N)=N1)c1cc(-c3cc(Cl)ccc3F)cnc1O2 [Example 69, (5R)-3-(5-chloro-2-fluorophenyl)-7-(2,2-dimethylpropoxy)spiro[chromeno[2,3-b]pyridine-5,4′-[1,3]oxazol]-2′-amine]

- IC50 [1, 5]: > 5 µM
- IC50 [2, 6]: 0.1 to 1 µM
SMILES: COc1ccc(-c2ccc3c(c2)[C@@]2(COC(N)=N2)c2cc(OCC(C)(C)C)ccc2O3)c(OC)n1 [compound 909]

- IC50 [1, 5]: 0.1 to 1 µM
- IC50 [2, 6]: 0.1 to 1 µM
SMILES: NC1=N[C@]2(CO1)c1ccccc1Oc1cc(F)c(-c3cccnc3)cc12 [compound 569]

- IC50 [1, 5]: 0.1 to 1 µM
- IC50 [2, 6]: 0.1 to 1 µM
SMILES: CC(=O)COc1ccc2c(c1)[C@@]1(COC(N)=N1)c1cc(-c3cccnc3)cnc1O2 [compound 864]

- IC50 [1, 3]: 1 to 5 µM
- IC50 [2, 4]: > 5 µM
SMILES: COc1ccc2c(c1)C1(COC(N)=N1)c1cc(-c3ccc(OC(F)(F)F)cc3)ccc1O2 (centres unmarked) [Example 27, 2′-methoxy-7′-(4-(trifluoromethoxy)phenyl)spiro[1,3-oxazole-4,9′-xanthen]-2-amine]

- IC50 ([1]; read-out: HEK cell assay): 0.1 to 1 µM
- IC50 ([2]; read-out: BACE1 FRET assay): 0.1 to 1 µM
SMILES: COC(=O)/C=C/c1ccc2c(c1)[C@@]1(COC(N)=N1)c1cc(-c3cncnc3)ccc1O2 [compound 946]

- IC50 [1, 5]: > 5 µM
- IC50 [2, 6]: 1 to 5 µM
SMILES: NC1=N[C@]2(CO1)c1ccccc1Oc1ccc(-c3cc4ccccc4[nH]3)cc12 [compound 567]
